Patent US20160022599A1, “System and Method for Fabrication of Uniform Polymer Films Containing Nano and Micro Particles via Continuous Drying Process” (NEW JERSEY INSTITUTE OF TECHNOLOGY, priority 2013, published 2016)
Converted amounts (≈) assume the structure as drawn. Each block holds one compound with its values, some of them ahead of it.

What was measured:
[1] = USP IV flow-through cell dissolution of films in SDS solution; type: physicochemical
Method: The dissolution experiments were performed by cutting out a ⅜ inch diameter sample of film and placing it into a flow-though cell dissolution apparatus (USP IV, Sotax, Switzerland) while 118 mL (5.4 mg/mL) aqueous SDS passed through cells (internal diameter of 22.6 mm) at a rate of 16 mL per minute. The amount of API dissolved from the film was measured over time until 100% of drug was released.
Dissolution experiments were performed using a flow-through cell dissolution apparatus (USP IV, Sotax, Switzerland) with cells of an internal diameter of 22.6 mm. Films were horizontally positioned in the cells with glass beads (1 mm in diameter) filling up the conical part at the bottom of each cell. Glass microfiber filters (GF/D grade, Whatman, Schenectady, N.Y., USA) were used in the filter-head. The temperature was maintained at 37±0.5° C. and a flow rate of 15 mL/min was used.
During testing, the dissolution medium (20 mM SDS solution, 100 mL) was circulated by pumping it through each cell. Six samples were used and the average drug release and the standard deviation were plotted as a function of time.
The dissolution behavior of the stripfilms made using the blend (HPMC and PVP) strip films containing GF nanoparticles was examined using a flow-through cell dissolution apparatus (USP IV, Sotax, Switzerland) with cells of an internal diameter of 22.6 mm. Six circular film samples (having an area of 0.712 cm^2) were punched out of each film and tested. For each film, six samples were horizontally positioned in the six cells with 6.5 g of glass beads (1 mm in diameter) filling up the conical part at the bottom of each cell. Pall HT Tuffryn Membrane Disc Filters (0.2 μm) were used for this study in the filter-head in each experiment. The temperature was maintained at 37±0.5° C., and a flow rate of 16 ml/min was used. During testing, a 100 ml dissolution medium (SDS solution (5.4 mg/ml)) was circulated by pumping it through each cell. […]

[2] = Film disintegration time in water; type: physicochemical; details: ⅝ inch diameter film in 10 ml of water; film about 16 micrometer (Example 8)
Method: The drying temperature was kept constant at 60° C. Casting thickness was adjusted to 200 micron thickness using a Doctor blade film applicator. The film was dried for about 30 min, and the dried film thickness was measured to be about 16 micrometer. The disintegration time of dried films was noted by placing a ⅝ inch diameter film in 10 ml of water. The time taken by the film to disintegrate completely was about 10 seconds.

[3] = Drug particle size (laser diffraction / DLS) in suspension and after re-dispersion from films; type: physicochemical; details: for d50, Tip Speed: 11.72 m/s / d50, Tip Speed: 14.66 m/s: WSMM, 100 μm media; for median size of suspension after milling of drug alone: no stabilizers
Method: An aliquot of the suspensions was dispersed in a 10 ml stabilizer solution and the particle size of the suspensions was measured using a Beckman Coulter LS13320 after milling. The resulting drug suspensions were mixed with a 10% w/w solution of HPMC E15LV and glycerin in a ratio of 1:1, drug suspension to polymer solution. This suspension was stirred for 3 hours with a dual-propeller mixer (McMaster, Catalog no. 3471K5, Los Angeles, Calif., USA). The particle size of the suspensions was measured after mixing with the polymer solution to check for particle growth.
The term “median size” here refers to the 50% vol. passing size of the cumulative volume distribution in LD and cumulant or z-average mean size in DLS. The griseofulvin particle size above 160 nm was measured in LD and the sizes below were measured using DLS. […] The particle size of un-milled drug suspension (in the presence of stabilizers), was also measured and referred as the 0th minute particle size.
GF nanosuspensions were produced via WSMM utilizing a Microcermill (NETZSCH, Fine particle technology LLC, Exton, Pa.) as per previously described methods and processing conditions. HPMC and SDS were chosen as stabilizers. […] At the end of milling, a sample was taken from the holding tank of the mill and dispersed into 15 mL HPMC-SDS stabilizers solution (using a pipette) and the particle size distribution of GF in the sample was then measured using laser diffraction in Coulter LS13320 (Beckman Coulter, Miami, Fla.).
The particle size distribution of GF was measured in suspensions after milling, after mixing with polymer solutions (S-S8) and from re-dispersed films using a laser diffraction technique. […] The size of SDIs (SSG, CCS and CP) was recorded for three cases: after incorporation into HPMC solution, before and after addition of GF nano-suspension and after film re-dispersion. Film re-dispersion was performed by dissolving a small piece of film (about 0.712 cm^2 in area) into 10 mL DI water followed by vortex mixing for 1 min. The same procedure was also followed for formulations S4-S8. Each experiment was performed in triplicate. […]
Particle size measurement of drug nanoparticles in suspension is described herein. To re-disperse drug particles from films, circular punches of film of about 0.71 cm^2 in area were vortex mixed in 3 mL of DI water for 3-5 minutes.
The particle size distribution of GF in the nano-suspensions was measured by laser diffraction in Coulter LS13320 (Beckman Coulter, Miami, Fla., USA). A sample of the suspension was taken at the end of milling from the holding tank of the mill. The sample was dispersed in 15 ml HPMC-SDS stabilizer solution by stirring with a pipette. The sample was added drop-wise until the polarization intensity differential scattering (PIDS) reached 40%.
The same method was used to measure the particles size of GF nanoparticles re-dispersed in water from films. […] The sample particle size was measured after 10 min of magnetic stirring.

[4] = cited from earlier work
[5] = cited from earlier work; remark: listed apart in the source
[6] = USP IV flow-through cell dissolution of films in deionized water; type: physicochemical; details: DI water media
Method: Therefore, for the present disclosure, a flow-through cell dissolution apparatus (USP 4, Sotax, Switzerland) with cells of an internal diameter of 22.6 mm was employed. Circular film samples (having an area of 0.712 cm^2) were horizontally positioned in the cells with glass beads (1 mm in diameter) filling the top and bottom of each cell. […] The temperature was maintained at 37±0.5° C. and a flow rate of 16 mL/min was used. Dissolution experiments were carried out using two different media. […] For the second case, deionized (DI) water was used as the media. Six samples were used from each film (S-S8) and the average drug release was plotted as a function of time. To better understand the effect of SDIs on rate of drug release from HPMC films, two new formulations were prepared (formulation S7 and S8). In the first case a high molecular weight HPMC (E4M, Dow chemicals) was used to prepare films loaded with GF nanoparticles. In the second a higher concentration of HPMC ([…]) was used to prepare films containing GF nanoparticles (following the same procedure stated above). The percent drug loading and film thickness were kept same as formulations S-S8 and same dissolution testing protocols were followed. The release kinetics of GF from HPMC films was determined by finding the best fit for the release profiles. […]

[7] = cited from earlier work; remark: listed apart in the source

percent griseofulvin dissolved within five minutes ([1]; 0.025 M SDS, about 18 micron HPMC film, 70 nm nanoparticles (Example 8)): about 100% | disintegration time of dried film [2]: about 10 seconds | d50, Tip Speed: 11.72 m/s ([3]; time 0): 21.845 microns | d50, Tip Speed: 14.66 m/s ([3]; time 0): 21.845 microns | d50, Tip Speed: 11.72 m/s ([3]; time 4): 1.378 microns | d50, Tip Speed: 14.66 m/s ([3]; time 4): 0.479 microns | d50, Tip Speed: 11.72 m/s ([3]; time 8): 0.378 microns | d50, Tip Speed: 14.66 m/s ([3]; time 8): 0.267 microns | d50, Tip Speed: 11.72 m/s ([3]; time 16): 0.149 microns | d50, Tip Speed: 14.66 m/s ([3]; time 16): 0.134 microns | d50, Tip Speed: 11.72 m/s ([3]; time 32): 0.122 microns | d50, Tip Speed: 14.66 m/s ([3]; time 32): 0.112 microns | d50, Tip Speed: 11.72 m/s ([3]; time 64): 0.106 microns | d50, Tip Speed: 14.66 m/s ([3]; time 64): 0.087 microns | d50, Tip Speed: 11.72 m/s ([3]; time 120): 0.084 microns | d50, Tip Speed: 14.66 m/s ([3]; time 120): 0.069 microns | d50, Tip Speed: 11.72 m/s ([3]; time 180): 0.069 microns | d50, Tip Speed: 14.66 m/s ([3]; time 180): 0.061 microns | d50, Tip Speed: 11.72 m/s ([3]; time 240): 0.067 microns | d50, Tip Speed: 14.66 m/s ([3]; time 240): 0.064 microns | d50, Tip Speed: 11.72 m/s ([3]; time 300): 0.062 microns | d50, Tip Speed: 14.66 m/s ([3]; time 300): 0.059 microns | d50, Tip Speed: 11.72 m/s ([3]; time 360): 0.060 microns | d50, Tip Speed: 14.66 m/s ([3]; time 360): 0.056 microns | median size of suspension after milling of drug alone [3]: 4 um | final particle size at 360 min of milling ([3]; tip speed 11.72 m/s): 60 nm | final particle size at 360 min of milling ([3]; tip speed 14.66 m/s): 56 nm
SMILES: COC1=CC(=O)C[C@@H](C)[C@]12Oc1c(Cl)c(OC)cc(OC)c1C2=O [GF, griseofulvin]
particle size stability of nanosuspension on storage ([3]; 7 days of storage): the particle size was stable after 7 days of storage | solubility in water ([4]; as quoted): 0.7 µg/mL (≈ 1.98 µM) | partition co-efficient, log P ([5]; as quoted): 1.1

median size of nanoparticles milled in the presence of HPMC alone [3]: 147 nm | median size of suspension after milling of drug alone [3]: 12 um
SMILES: COc1ccc2cc([C@H](C)C(=O)O)ccc2c1 [NPX, naproxen]

% of GF released in 50 minutes ([1]; SDS solution […], FIG. 47): 40%
SMILES: COC1=CC(=O)C[C@@H](C)[C@]12Oc1c(Cl)c(OC)cc(OC)c1C2=O [as received powder, griseofulvin]

SMILES: NC(=O)N=NC(N)=O [AZD, azodicarbonamide]
dissolution profiles of films with vs without SDS ([1]; SDS media, similarity and difference factors): statistically similar dissolution profiles with and without SDS | dissolution profiles of films with vs without SDS [6]: statistically similar dissolution profiles with and without SDS | Solubility in water at 4° C. [4]: 35.0 µg/mL (≈ 302 µM) | logP ([5]; Table 23): 5.8 | pKa [7]: 3.9
